The term pKi denotes the negative decadic logarithm of the Ki, by convention in mol/L.

One compound from US7361665B2, “Inhibitors of c-Jun N-terminal kinases (JNK) and other protein kinases” (Vertex Pharmaceuticals Incorporated, priority 2002, dated 2008) can be followed below.

pKi: −log10 of the molar value.

In the assay the target is T1, JNK3 (Homo sapiens, UniProt P53779).
T1 construct: One such construct encodes amino acid residues Ser40-Glu402 of JNK3α1 and is preceded by Met and Gly residues; Met-Gly dipeptide (initiation Met plus Gly added for the NcoI site) (N); made in house; host or cells: E. coli BL21 (DE3)
T1 sequence (P53779 40-402): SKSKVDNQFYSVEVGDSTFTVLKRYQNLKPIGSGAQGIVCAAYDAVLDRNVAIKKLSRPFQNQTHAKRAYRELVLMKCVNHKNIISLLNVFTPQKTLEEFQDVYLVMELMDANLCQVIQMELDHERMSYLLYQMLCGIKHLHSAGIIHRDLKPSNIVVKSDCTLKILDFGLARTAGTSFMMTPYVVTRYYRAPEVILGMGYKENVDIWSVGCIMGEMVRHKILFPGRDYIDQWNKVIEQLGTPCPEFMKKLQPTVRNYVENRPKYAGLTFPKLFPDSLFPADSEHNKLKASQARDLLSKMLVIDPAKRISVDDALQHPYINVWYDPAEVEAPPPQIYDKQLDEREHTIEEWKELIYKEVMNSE
Nature of the assay: JNK inhibition assay (spectrophotometric coupled-enzyme assay). It is filed as biochemical. Conditions: activated JNK3 10 nM, 10 μM ATP, 30° C.; read-out: JNK3 Activity (Ki rating). From the text: A BLAST search of the EST database using the published JNK3α1 cDNA as a query identified an EST clone (#632588) that contained the entire coding sequence for human JNK3α1. Polymerase chain reactions (PCR) using pfu polymerase (Strategene) were used to introduce restriction sites into the cDNA for cloning into the pET-15B expression vector at the NcoI and BamHI sites. The protein was expressed in E. coli. Due to the poor solubility of the expressed full-length protein (Met 1-Gln 422), an N-terminally truncated protein starting at Ser residue at position 40 (Ser 40) was produced. This truncation corresponds to Ser 2 of JNK1 and JNK2 proteins, and is preceded by a methionine (initiation) and a glycine residue. The glycine residue was added in order to introduce an NcoI site for cloning into the expression vector. In addition, systematic C-terminal truncations were performed by PCR to identify a construct that give rise to diffraction-quality crystals. One such construct encodes amino acid residues Ser40-Glu402 of JNK3α1 and is preceded by Met and Gly residues.
Five mg of JNK3 was diluted to 0.5 mg/ml in 50 mM HEPES buffer, pH 7.5, containing 100 mM NaCl, 5 mM DTT, 20 mM MgCl2 and 1 mM ATP. GST-MKK7(DD) was added at a molar ratio of 1:2.5 GST-MKK7:JNK3. After incubation for 30 minutes at 25° C., the reaction mixture was concentrated 5-fold by ultrafiltration in a Centriprep-30 (Amicon, Beverly, Mass.), diluted to 10 ml and an additional 1 mM ATP added. This procedure was repeated three times to remove ADP and replenish ATP. The final addition of ATP was 5 mM and the mixture incubated overnight at 4° C.
The activated JNK3/GST-MKK7(DD) reaction mixture was exchanged into 50 mM HEPES buffer, pH 7.5, containing 5 mM DTT and 5% glycerol (w/v) by dialysis or ultrafiltration. The reaction mixture was adjusted to 1.1 M potassium phosphate, pH 7.5, and purified by hydrophobic interaction chromatography (at 25° C.) using a Rainin Hydropore column. […] Activated JNK3 (i.e. doubly phosphorylated JNK3) was stored at −70° C. at 0.25-1 mg/ml.
Compounds were assayed for the inhibition of JNK3 by a spectrophotometric coupled-enzyme assay. In this assay, a fixed concentration of activated JNK3 (10 nM) was incubated with various concentrations of a potential inhibitor dissolved in DMSO for 10 minutes at 30° C. in a buffer containing 0.1 M HEPES buffer, pH 7.5, containing 10 mM MgCl2, 2.5 mM phosphoenolpyruvate, 200 μM NADH, 150 μg/mL pyruvate kinase, 50 μg/mL lactate dehydrogenase, and 200 μM EGF receptor peptide. The EGF receptor peptide has the sequence […] (SEQ ID NO: 3), and is a phosphoryl acceptor in the JNK3-catalyzed kinase reaction. The reaction was initiated by the addition of 10 μM ATP and the assay plate is inserted into the spectrophotometer's assay plate compartment that was maintained at 30° C. The decrease of absorbance at 340 nm was monitored as a function of time. The rate data as a function of inhibitor concentration was fitted to competitive inhibition kinetic model to determine the Ki.
The compound numbers correspond to the compound numbers in Tables 1-3.

Regarding `Cc1nc(-c2cccs2)sc1-c1ccnc(Nc2ccc(S(N)(=O)=O)cc2)n1` [IIc-22], the pKi is above 7.00.
